The target in the experiment is T1, monoglyceride lipase (MGLL) (Homo sapiens, UniProt Q99685).
T1 construct: enzyme source only in Supplementary section D
T1 sequence (Q99685 1-303): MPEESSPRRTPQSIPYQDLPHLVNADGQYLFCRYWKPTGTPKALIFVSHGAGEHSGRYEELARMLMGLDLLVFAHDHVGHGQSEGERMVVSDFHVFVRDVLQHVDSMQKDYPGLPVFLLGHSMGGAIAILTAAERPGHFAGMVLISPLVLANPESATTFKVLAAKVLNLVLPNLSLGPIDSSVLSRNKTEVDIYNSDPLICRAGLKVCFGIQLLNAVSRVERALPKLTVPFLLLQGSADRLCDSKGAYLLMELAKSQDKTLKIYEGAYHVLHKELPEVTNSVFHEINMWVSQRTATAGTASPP
Briefly: natural substrate assay, residual MGLL activity. As to conditions: enzyme preparation and conditions only in Supplementary section D.
For `O=C(OC(C(F)(F)F)C(F)(F)F)N1CCN(C2CCCCC2)CC1` [compound 1, Compound 1], the 50% inhibitory concentration (IC50) turned out to be 1 µM.

With `O=C(N1CCCC(c2ccc(F)cc2)C1)n1nnc2ccccc21` (stereo not drawn) [compound 2], the concentration for half-maximal inhibition (IC50) is roughly 100 µM.

Compound `O=C(c1nccs1)N1CCN(C(c2ccccc2)c2ccccc2)CC1` [compound 3] had a concentration for half-maximal inhibition (IC50) of roughly 100 µM.

The values are drawn from publication PMC11954305, “Generate what you can make: achieving in-house synthesizability with readily available resources in de novo drug design” (Journal of Cheminformatics, 2025).
